In patent US6653330B2, “Amide-type triazole compounds” (Sankyo Company, Limited, priority 2000, dated 2003):
In brackets after ≈: the same amount, converted by molar mass.

Experiments:
[1] = test system: Candida albicans SANK 51486; assay: In vitro antifungal activity (MIC), Candida albicans; type: cell-based; details: SANK51486, MIC = lowest concentration causing at least 80% growth inhibition (IC80), RPMI1640 pH 7.0, 35° C., trans isomers
Procedure: (§1) The antifungal activities of test compounds were assessed according to their minimum inhibitory concentrations (MICs) which were measured by the methods described below.
(§2) Liquid medium: RPMI1640 medium which was buffered to pH 7.0 (without an indicator) with 0.165M 3-(morpholino)propanesulfonic acid was used for Candida albicans and Aspergillus fumigatus. Yeast Nitrogen Base medium which was buffered to pH 7.0 with 0.165M 3-(morpholino)propanesulfonic acid was used for Cryptococcus neoformans.
(§3) Preparation of inoculation fungi solution: Each test fungi solution of Candida albicans and Cryptococcus neoformans was incubated on Sabouraud agar medium at 35° C. for 48 hours. About five colonies of the test fungi having 1 mm diameter were suspended in physiological saline and the transmittance of the suspension was adjusted to Macfarland 0.5 degree. A one thousand-fold diluted suspension of the resulting suspension was prepared by dilution with the liquid medium described above and was used for Candida albicans. A one hundred-fold diluted suspension of the resulting suspension was prepared by dilution with the liquid medium described above and was used for Cryptococcus neoformans. Aspergillus fumigatus was incubated on Potato dextrose agar at 35° C. for five days. Spores on the agar medium were collected with physiological saline containing 0.05% Tween 80 and the number of spores was adjusted to 2.5×10^7/ml using a blood cell counter. A one thousand-fold diluted suspension was prepared by dilution of the resulting spore suspension with the liquid medium described above and was used for Aspergillus fumigatus.
(§4) Preparation of test compound solution: Each test compound was dissolved in 100% dimethyl sulfoxide and serial two-fold dilutions of each compound were prepared with 100% dimethyl sulfoxide. The final concentration of dimethyl sulfoxide was adjusted to not greater than 1% by dilution with each liquid medium described above respectively.
(§5) Assessment method: Each diluted test compound (100 μl), the inoculation fungi solution (80 μl) and Alamar blue solution (20 μl) was sequentially added to each of wells of microtiter plate having 96 wells. The resulting mixture was incubated at 35° C. (30° C. for Aspergillus fumigatus). When the light absorbance at 570 nm of growth control exceeded 0.6, the MICs were determined. The MICs were defined as the lowest compound concentrations causing at least 80% growth inhibition (IC80) compared with the control to which the test compound was not added.

[2] = test system: Aspergillus fumigatus SANK 10569; assay: In vitro antifungal activity (MIC), Aspergillus fumigatus; type: cell-based; details: SANK10569, MIC = lowest concentration causing at least 80% growth inhibition (IC80), RPMI1640 pH 7.0, 30° C., trans isomers
Procedure: as §1, §2, §3, §4, §5

[3] = test system: Cryptococcus neoformans TIMM 1855; assay: In vitro antifungal activity (MIC), Cryptococcus neoformans; type: cell-based; details: TIMM1855, MIC = lowest concentration causing at least 80% growth inhibition (IC80), Yeast Nitrogen Base pH 7.0, 35° C., trans isomers
Procedure: as §1, §2, §3, §4, §5

SMILES | MIC [1] [µg/mL] | MIC [2] [µg/mL] | MIC [3] [µg/mL] | melting point [°C]
C[C@@H](SC1COC(c2ccccc2)OC1)[C@](O)(Cn1cncn1)c1ccc(F)cc1F (some centres unmarked) [Comparative compound (A), reference compound] | 0.063 (≈ 0.141 µM) | 4 (≈ 8.94 µM) | 0.25 (≈ 0.559 µM) | –
C[C@@H](S[C@H]1CO[C@H](c2ccc3cc(C(=O)Nc4ccc(C#N)cc4)ccc3c2)OC1)[C@](O)(Cn1cncn1)c1ccc(F)cc1F [Example 3, 4′-Cyano-6-[trans-5-[[(1R,2R)-2-(2,4-difluorophenyl)-2-hydroxy-1-methyl-3-(1H-1,2,4-triazol-1-yl)propyl]thio]-1,3-dioxan-2-yl]-2-naphthoanilide] | ≤ 0.008 | 0.063 (≈ 0.0982 µM) | 0.063 (≈ 0.0982 µM) | 114
C[C@@H](S[C@H]1CO[C@H](c2cccc(C(=O)Nc3ccc(Cl)cc3)c2)OC1)[C@](O)(Cn1cncn1)c1ccc(F)cc1F [Example 9, 4′-Chloro-3-[trans-5-[[(1R,2R)-2-(2,4-difluorophenyl)-2-hydroxy-1-methyl-3-(1H-1,2,4-triazol-1-yl)propyl]thio]-1,3-dioxan-2-yl]benzanilide] | ≤ 0.008 | 2 (≈ 3.33 µM) | 0.25 (≈ 0.416 µM) | 90
C[C@@H](S[C@H]1CO[C@H](c2ccc(C(=O)Nc3ccc(O)cc3)cc2)OC1)[C@](O)(Cn1cncn1)c1ccc(F)cc1F [Example 23, 4-[trans-5-[[(1R,2R)-2-(2,4-Difluorophenyl)-2-hydroxy-1-methyl-3-(1H-1,2,4-triazol-1-yl)propyl]thio]-1,3-dioxan-2-yl]-4′-hydroxybenzanilide] | 0.016 (≈ 0.0275 µM) | 0.5 (≈ 0.858 µM) | 0.25 (≈ 0.429 µM) | 254
C[C@@H](S[C@H]1CO[C@H](c2ccc(C(=O)NCc3ccc(C#N)cc3)cc2)OC1)[C@](O)(Cn1cncn1)c1ccc(F)cc1F [Example 26, N-(4-Cyanobenzyl)-4-[trans-5-[[(1R,2R)-2-(2,4-difluorophenyl)-2-hydroxy-1-methyl-3-(1H-1,2,4-triazol-1-yl)propyl]thio]-1,3-dioxan-2-yl]benzamide] | 0.016 (≈ 0.0264 µM) | 0.25 (≈ 0.413 µM) | 0.25 (≈ 0.413 µM) | 188
C[C@@H](S[C@H]1CO[C@H](c2ccc(C(=O)Nc3ccc(OCC(F)(F)C(F)F)cc3)cc2)OC1)[C@](O)(Cn1cncn1)c1ccc(F)cc1F [Example 1, 4-[trans-5-[[(1R,2R)-2-(2,4-Difluorophenyl)-2-hydroxy-1-methyl-3-(1H-1,2,4-triazol-1-yl)propyl]thio]-1,3-dioxan-2-yl]-4′-(2,2,3,3-tetrafluoropropoxy)benzanilide] | 0.016 (≈ 0.023 µM) | 0.125 (≈ 0.179 µM) | 0.063 (≈ 0.0904 µM) | 156
